Drawing on BindingDB's records for doi:10.1021/jm100470t (Ume&#163, 2010), this text covers IC50 for eleven compounds.

The structures appear in SMILES notation.

Broadly, the IC50 is the concentration that inhibits the measured activity by half.

The nature of the experiment: Inhibition of Escherichia coli UTI89 PapD chaperon assessed as inhibition of biofilm formation.
Consider `CC(C)(O)c1sc2c(C3CC3)c(Cc3cccc4ccccc34)cc(=O)n2c1C(=O)O`, for which the 50% inhibitory concentration (IC50) came to 304 µM.

Turning to `Cc1ccc(-c2sc3c(C4CC4)c(Cc4cccc5ccccc45)cc(=O)n3c2C(=O)O)cc1`, the IC50 came out at 13 µM.

In the case of `O=C(O)c1c(-c2ccccc2)sc2c(C3CC3)c(Cc3cccc4ccccc34)cc(=O)n12`, the IC50 was determined as 11 µM.

With `O=C(O)c1c(-c2ccoc2)sc2c(C3CC3)c(Cc3cccc4ccccc34)cc(=O)n12`, the IC50 turned out to be 78 µM.

For `O=C(O)c1c(-c2ccsc2)sc2c(C3CC3)c(Cc3cccc4ccccc34)cc(=O)n12`, the IC50 worked out at 25 µM.

Consider `O=C(O)c1c(Cc2ccccc2)sc2c(C3CC3)c(Cc3cccc4ccccc34)cc(=O)n12`, for which the IC50 turned out to be 7 µM.

With `O=C(Nc1ccccc1)c1sc2c(C3CC3)c(Cc3cccc4ccccc34)cc(=O)n2c1C(=O)O`, the IC50 amounted to 159 µM.

With `Cc1cccc(-c2sc3c(C4CC4)c(Cc4cccc5ccccc45)cc(=O)n3c2C(=O)O)c1`, the IC50 is 11 µM.

As for `CS(=O)(=O)NC(=O)c1c(-c2ccccc2)sc2c(C3CC3)c(Cc3cccc4ccccc34)cc(=O)n12`, the IC50 turned out to be 39 µM.

For the compound `O=C(O)c1c(-c2ccco2)sc2c(C3CC3)c(Cc3cccc4ccccc34)cc(=O)n12`, the IC50 is 61 µM.

Consider `Cc1sc2c(C3CC3)c(Cc3cccc4ccccc34)cc(=O)n2c1C(=O)O`, for which the half-maximal inhibitory concentration (IC50) is 90 µM.
